Structures are written as SMILES. “Also recorded” adds a separate entry of the source.

What all share (type): cell-based, human
Assay [1] has as its system mature dendritic cells (mDC). Nature of the assay: Phagocytosis of Staphylococcus aureus particles by mDC co-cultured with ASCs. To be noted: NAC-pretreated ASCs, non-contact co-culture (FIG. 12). Here is the method:
After differentiation in monoculture or co-culture in vitro (the differentiation conditions, including the cytokines used, concentrations and times of differentiation, are provided in Example 7), macrophages and mDC were harvested using 0.05% Trypsin-EDTA for 10 minutes at 37° C. The phagocytic potential of polarized macrophages or mDC was assessed using pHRodo Red-conjugated S. aureus particles (Life Technologies #A10010) following manufacturer's instructions. Briefly, 50,000 mDC were transferred to a 96-well U bottom wells (Corning #3799) and the cells were rested for 60 minutes in RPMIc. Lyophilized pHRodo conjugated particles were reconstituted in 1 mL of RPMIc per vial prior to use, and particles were sonicated for 5 minutes at 20% amplitude. Then, 50 μL of pHRodo […] were added per well and the cells were incubated for 60 minutes in normoxia at 37° C. Afterwards, phagocytosis was stopped on ice and cells were washed and stained with 5 μL 7-aminoactinomycin D (7AAD) prior to FACS analysis in Fortessa cytometer (BD). Negative controls for phagocytosis were cells without pHRodo reagent. Results were analysed in FlowJo software. The intensity of the fluorescence in the PE channel is proportional to the amount of bacterial particles phagocytosed per cell.

Assay [2] concerns ASCs. Nature of the assay: ASC identity assay by flow cytometry (CD29, CD73, CD90, CD105). The note with it: 6 mM NAC pretreatment; two weeks in culture post-thawing; donor A (FIG. 7).
Assay [3] concerns ASCs. Nature of the assay: Post-thaw treatment with NAC in plating medium: cell growth after thawing. Here is the method:
A 600 mM stock of NAC (SIGMA) was prepared in Milli-Q water (Millipore). This stock was used for pre-treatment and post-treatment by adding directly 50 μL stock solution per well into 5 mL of medium, making a final concentration of 6 mM. For 2 mM, only 16.7 μL were added per well, and in the case of 12 mM, 100 μL of stock were added. DMSO was used as the vehicle for sc79 and LY294. The effect of post-thaw treatment with different concentrations of NAC (post-thaw NAC treatment) on cell growth was also studied. ASCs were frozen (without NAC pretreatment), thawed as discussed above, and then treated with three different NAC concentrations (2, 6 and 12 mM) in complete DMEM prior to plating, and the cell numbers at day 4, 11 and 14 were analysed.

In assay [4] the test system is mature dendritic cells (mDC). Nature of the assay: Co-culture of monocytes with ASCs: mDC differentiation, activation clusters (microscopy). To be noted: NAC-pretreated ASCs, donors A and B, transwell co-culture (FIGS. 10, 11). Here is the method:
Frozen vials of PBMCs were thawed, counted and CD14^+ CD16^− monocytes were isolated using the Dynabeads Untouched Human Monocytes kit (Dynal #11350D), following the manufacturer's instructions.
Isolated CD14^+ CD16^− monocytes (see above) were plated in 5 mL of RPMIc at 1.5 million cells per 6-well (Falcon #353046), in normoxia. The following factors were added for differentiation into non-polarized M0 macrophages or further polarization into M1, M2 macrophages and mature dendritic cells (mDC) populations in monocultures (based on several publications, including Beyer et al., PLoS One (2012) 7(9): e45466; Erbel et al., J. Vis. Exp. (2013) 76: e50332; Zhou et al, 2014; Tarique et al, American Journal of Respiratory Cell and Molecular Biology 2015; 53(5):676-688.
Immature DC (iDC): RPMIc+5 ng/mL GM-SCF+10 ng/mL IL-4 for 5 days Maturation of DC (mDC): at day 5, add 40 ng/mL LPS (i.e. add 500 μL/well of RPMIc supplemented with 400 ng/mL LPS to the pre-existing media). Human recombinant GM-CSF (#100-22B) and IL-4 (#200-04) were from Peprotech. LPS (#L8274) was from SIGMA. The addition of GM-C SF and IL4 mediates the differentiation to immature dendritic cells (iDC); 5 days later addition of LPS induces the maturation of iDCs to mDCs, and after 2 days the phenotype and function of these mature DC were analysed in the presence or absence of the ASC. Co-Culture Experiments with ASCs […]

Assay [5] relates to CD206 and CD163 on mature dendritic cells. Nature of the assay: Surface expression of phagocytic receptors CD206 and CD163 by mDC co-cultured with ASCs (flow cytometry). To be noted: NAC-pretreated ASCs, donors A and B (FIGS. 13, 14). The protocol:
After differentiation in monoculture or co-culture in vitro (the differentiation conditions, including the cytokines used, concentrations and times of differentiation, are provided in Example 7), macrophages and mDC were harvested using 0.05% trypsin-EDTA for 10 minutes at 37° C., after supernatants were collected and frozen for future cytokine and/or HPLC analysis. After mDC were counted, they were distributed into 96-well V bottom plates for staining (Nunc #249570). Cells were incubated in Blue MACS buffer with 1% human serum for 15 minutes on ice, to block Fcγ receptor-mediated nonspecific antibody binding. Subsequently, cells were stained for 20 minutes on ice with the following antibody mixes (staining in 50 μL of 1:10 antibody dilution; except for CD64, which was 1:20 dilution): Cell viability was assessed by addition of 5 μL of 7AAD per well and staining for 10 minutes on ice, and samples were acquired in a BD Fortessa cytometer. Results were analysed in FSC Express software.

As to `CC(=O)N[C@@H](CS)C(=O)O` [NAC, N-Acetylcysteine], the “ability of ASCs to increase phagocytosis potential of mDCs” value in assay [1] was “did not alter their ability to increase the phagocytosis potential of mDCs”. For the same compound, in the assay on ASCs [2], the “expression of ASC identity markers CD29, CD73, CD90 and CD105” value is “does not alter the expression of ASC identity markers”. Moreover, the “number of viable cells” value with ASCs [3] (post-thaw treatment with 2 mM NAC, 7 days of culture (FIG. 6)) was ~6,300 cells/cm^2; in the assay with ASCs [3] (post-thaw treatment with 2 mM NAC, 11 days of culture (FIG. 6)), ~18,700 cells/cm^2; with ASCs [3] (post-thaw treatment with 2 mM NAC, 14 days of culture (FIG. 6)), ~18,300 cells/cm^2. Also, the growth rate result with ASCs [3] (post-thaw treatment with 2 mM NAC, between days 7 and 11 (FIG. 6)) is on record as “approximately 3100 cells/cm^2/day”. Moreover, the “cell number versus non-treated” value with ASCs [3] (post-thaw treatment with 2 mM NAC, sustained up to 2 weeks in culture (FIG. 6)) is recorded as “increase in cell number”. The “cell density versus non-treated” value in the assay with ASCs [3] (post-thaw treatment with 6 mM NAC (FIG. 6)) and in the assay with ASCs [3] (post-thaw treatment with 12 mM NAC (FIG. 6)) was “lower cell densities” throughout. Further, the “ASC modulation of mDC activation (no activation clusters)” value in assay [4] is reported as “not disrupted”. Besides, the “ASC-mediated upregulation of CD206 and CD163 on mDC” value in assay [5] is on record as “this upregulation was intact; also recorded: did not alter these effects”.
